Test results taken from US8546443B2, “Benzylic oxindole pyrimidines” (Boehringer Ingelheim International GmbH, priority 2010, dated 2013).

How the values were obtained:
[1] = test system: TC-71 (Ewing's sarcoma) cells; experiment: Cell proliferation assay, TC-71 (Alamar Blue); assay type: cell-based; details: 72 h with compound, EC50 ranges as class symbols
Description: Cell Proliferation Assays
Compounds were tested for their anti-proliferative effects in the TC-71 (Ewing's sarcoma) and HCT 116 (colorectal carcinoma) cancer cell lines in vitro. Published scientific data has described that interference with the Insulin-like Growth Factor-1 Receptor (IGF-1R) signaling pathway reduces the proliferation of TC-71 cells. Therefore TC-71 cells served as a positive control cell line for monitoring the activity of compounds against IGF-1R-mediated cell proliferation. […] Therefore the HCT 116 cell line served as a negative control.
2000 TC-71 cells or 1000 HCT 116 cells were seeded per well in 180 μL IMDM+10% foetal calf serum (FCS)+ penicillin/streptomycin into 96-well microtitre plates. The plates were placed in a cell culture incubator (37° C. in a humidified atmosphere of […]/5 CO2) overnight. The following day, serial dilutions of compounds, prepared in duplicates, were transferred onto the cell layers (controls without compound). The cells were cultivated for a further 72 h in the cell culture incubator. 20 μL of Alamar Blue™ (Serotec Ltd, Düsseldorf, Germany) was added to each well and the plates incubated for 7 h in the cell culture incubator. Fluorescence (extinction wavelength of 544 nm and emission at 590 nm) was then measured and the normalized data fitted by iterative calculation with a sigmoidal curve analysis program (Graph Pad Prism) with a variable Hill slope to determine the IC50 values.

[2] = molecular target: T1, cytoplasmic kinase domain of human IGF-1R (IGF-1R-GST) (Homo sapiens, UniProt P08069); experiment: Insulin-like growth factor-1 receptor (IGF-1R) kinase assay (DELFIA); assay type: biochemical; details: IGF-1R-GST kinase activity, read-out: IGF1R IC50
T1 construct: cytoplasmic kinase domain of human IGF-1R (amino acids 964-1370); GST (glutathione-S-transferase); made in house; host or cells: High Five insect cells (Invitrogen)
Procedure, shortened: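 GST-tagged IGF-1R cytoplasmic kinase domain phosphorylates pEY with biotinylated pEY for 40 min at RT; EDTA stop. Product captured on streptavidin, detected with europium anti-phosphotyrosine antibody by DELFIA time-resolved fluorescence; IC50 from inhibition curves.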

T1 sequence (P08069 964-1367 limits assumed): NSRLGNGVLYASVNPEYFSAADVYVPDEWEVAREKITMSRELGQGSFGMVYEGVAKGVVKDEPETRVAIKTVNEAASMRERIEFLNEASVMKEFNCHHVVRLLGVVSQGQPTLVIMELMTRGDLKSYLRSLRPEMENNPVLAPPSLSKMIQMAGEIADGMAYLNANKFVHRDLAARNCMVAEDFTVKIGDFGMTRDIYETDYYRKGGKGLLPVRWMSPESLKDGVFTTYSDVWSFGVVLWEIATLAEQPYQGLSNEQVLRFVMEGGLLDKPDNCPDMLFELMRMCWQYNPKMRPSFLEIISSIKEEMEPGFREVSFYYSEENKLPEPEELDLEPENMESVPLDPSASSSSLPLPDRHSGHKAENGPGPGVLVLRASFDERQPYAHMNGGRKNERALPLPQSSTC

Structure (SMILES)	EC50 [1]	IC50 [2]
CC1(C)C(=O)Nc2cccc(CNc3nc(Nc4ccc(C5CCCNC5)cc4)ncc3Br)c21 (racemic) [Example I-238]	50 to 250 nM	1 nM
CNC1(C(=O)N2CCCC(c3ccc(Nc4ncc(Br)c(NCc5cccc6c5C(C)(C)C(=O)N6)n4)c(C)c3)C2)CC1 (racemic) [Example I-291]	50 to 250 nM	6 nM
COc1cc(C2CCCN(CC(C)(C)O)C2)ccc1Nc1ncc(C(F)(F)F)c(NCc2cccc3c2C(C)(C)C(=O)N3)n1 (racemic) [Example I-301]	< 50 nM	1.6 nM
Cc1cc(C2CCCN(CC(C)(C)O)C2)ccc1Nc1ncc(C(F)(F)F)c(NCc2cccc3c2C(C)(C)C(=O)N3)n1 (racemic) [Example I-306]	< 50 nM	1 nM
Cc1cc(C2CCCN(CC(O)C(F)(F)F)C2)ccc1Nc1ncc(Br)c(NCc2cccc3c2C(C)(C)C(=O)N3)n1 (racemic) [Example I-316]	50 to 250 nM	2 nM
Cc1cc(C2CCCN(CC(C)(C)O)C2)ccc1Nc1ncc(Br)c(NCc2cccc3c2C(C)(C)C(=O)N3)n1 (racemic) [Example I-318]	< 50 nM	0.4 nM
COc1cc(C2CCCN(CC(C)(C)O)C2)ccc1Nc1ncc(Br)c(NCc2cccc3c2C(C)(C)C(=O)N3)n1 (racemic) [Example I-322]	< 50 nM	0.5 nM
CC1(C)C(=O)Nc2cccc(CNc3nc(Nc4ccc(C5CCCN(CC(O)C(F)(F)F)C5)cc4)ncc3Br)c21 (racemic) [Example I-325]	50 to 250 nM	2 nM
COc1cc(C2CCCN(CC(C)(C)O)C2)ccc1Nc1ncc(Cl)c(NCc2cccc3c2C(C)(C)C(=O)N3)n1 (racemic) [Example I-327]	< 50 nM	1 nM
Cc1cc(C2CCCN(CC(C)(C)O)C2)ccc1Nc1ncc(Cl)c(NCc2cccc3c2C(C)(C)C(=O)N3)n1 (racemic) [Example I-328]	< 50 nM	1 nM
Cc1cc(C2CCCN(CC(O)C(F)(F)F)C2)ccc1Nc1ncc(Cl)c(NCc2cccc3c2C(C)(C)C(=O)N3)n1 (racemic) [Example I-329]	< 50 nM	2 nM
CC1(C)C(=O)Nc2cccc(CNc3nc(Nc4ccc(C5CCCN(CC(O)C(F)(F)F)C5)cc4)ncc3Cl)c21 (racemic) [Example I-333]	250 to 3000 nM	2 nM
COCCN1CCCC(c2ccc(Nc3ncc(C(F)(F)F)c(NCc4cccc5c4C(C)(C)C(=O)N5)n3)c(OC)c2)C1 (racemic) [Example I-350]	< 50 nM	0.5 nM
COc1cc(C2CCCN(CCO)C2)ccc1Nc1ncc(C(F)(F)F)c(NCc2cccc3c2C(C)(C)C(=O)N3)n1 (racemic) [Example I-351]	< 50 nM	0.5 nM
Cc1cc(C2CCCN(CCO)C2)ccc1Nc1ncc(C(F)(F)F)c(NCc2cccc3c2C(C)(C)C(=O)N3)n1 (racemic) [Example I-354]	< 50 nM	1 nM
COCCN1CCCC(c2ccc(Nc3ncc(C(F)(F)F)c(NCc4cccc5c4C(C)(C)C(=O)N5)n3)c(C)c2)C1 (racemic) [Example I-356]	< 50 nM	0.8 nM
COCCN1CCCC(c2ccc(Nc3ncc(Br)c(NCc4cccc5c4C(C)(C)C(=O)N5)n3)cc2)C1 (racemic) [Example I-357]	50 to 250 nM	0.7 nM
CC1(C)C(=O)Nc2cccc(CNc3nc(Nc4ccc(C5CCCN(CCO)C5)cc4)ncc3Br)c21 (racemic) [Example I-358]	< 50 nM	0.7 nM
COCCN1CCCC(c2ccc(Nc3ncc(Br)c(NCc4cccc5c4C(C)(C)C(=O)N5)n3)c(C)c2)C1 (racemic) [Example I-359]	< 50 nM	0.5 nM
COCCN1CCCC(c2ccc(Nc3ncc(Br)c(NCc4cccc5c4C(C)(C)C(=O)N5)n3)c(OC)c2)C1 (racemic) [Example I-360]	< 50 nM	0.6 nM
COc1cc(C2CCCN(CCO)C2)ccc1Nc1ncc(Br)c(NCc2cccc3c2C(C)(C)C(=O)N3)n1 (racemic) [Example I-361]	< 50 nM	–
Cc1cc(C2CCCN(CCO)C2)ccc1Nc1ncc(Br)c(NCc2cccc3c2C(C)(C)C(=O)N3)n1 (racemic) [Example I-364]	< 50 nM	0.6 nM
CNC(=O)CN1CCCC(c2ccc(Nc3ncc(Br)c(NCc4cccc5c4C(C)(C)C(=O)N5)n3)cc2)C1 (racemic) [Example I-365]	50 to 250 nM	1 nM
CNC(=O)CN1CCCC(c2ccc(Nc3ncc(Br)c(NCc4cccc5c4C(C)(C)C(=O)N5)n3)c(C)c2)C1 (racemic) [Example I-366]	50 to 250 nM	2 nM
CCc1cc(C2CCCN(CCOC)C2)ccc1Nc1ncc(Br)c(NCc2cccc3c2C(C)(C)C(=O)N3)n1 (racemic) [Example I-368]	< 50 nM	2 nM

Structure (SMILES)	EC50 [1]	IC50 [2]
COCCN1CCCC(c2ccc(Nc3ncc(Cl)c(NCc4cccc5c4C(C)(C)C(=O)N5)n3)c(OC)c2)C1 (racemic) [Example I-371]	< 50 nM	0.8 nM
COc1cc(C2CCCN(CCO)C2)ccc1Nc1ncc(Cl)c(NCc2cccc3c2C(C)(C)C(=O)N3)n1 (racemic) [Example I-372]	< 50 nM	0.8 nM
COCCN1CCCC(c2ccc(Nc3ncc(Cl)c(NCc4cccc5c4C(C)(C)C(=O)N5)n3)c(C)c2)C1 (racemic) [Example I-373]	50 to 250 nM	0.4 nM
CNC(=O)CN1CCCC(c2ccc(Nc3ncc(Cl)c(NCc4cccc5c4C(C)(C)C(=O)N5)n3)cc2)C1 (racemic) [Example I-379]	50 to 250 nM	6 nM
COCCN1CCCC(c2ccc(Nc3ncc(Cl)c(NCc4cccc5c4C(C)(C)C(=O)N5)n3)cc2)C1 (racemic) [Example I-380]	50 to 250 nM	2 nM
CC1(C)C(=O)Nc2cccc(CNc3nc(Nc4ccc(C5CCCN(CCO)C5)cc4)ncc3Cl)c21 (racemic) [Example I-381]	50 to 250 nM	0.9 nM
Cc1cc(C2CCCN(CCO)C2)ccc1Nc1ncc(Cl)c(NCc2cccc3c2C(C)(C)C(=O)N3)n1 (racemic) [Example I-382]	< 50 nM	1 nM
CNC(=O)CN1CCCC(c2ccc(Nc3ncc(Cl)c(NCc4cccc5c4C(C)(C)C(=O)N5)n3)c(C)c2)C1 (racemic) [Example I-383]	50 to 250 nM	2 nM
CCc1cc(C2CCCN(CCOC)C2)ccc1Nc1ncc(Cl)c(NCc2cccc3c2C(C)(C)C(=O)N3)n1 (racemic) [Example I-384]	50 to 250 nM	6 nM
COc1cc(N2CCNCC2)ccc1Nc1ncc(C(F)(F)F)c(NCc2cccc3c2C(C)(C)C(=O)N3)n1 [Example I-31]	< 50 nM	0.7 nM
CC1(C)C(=O)Nc2cccc(CNc3nc(Nc4ccc(C5CCN(C(=O)C6CCCC(=O)N6)CC5)cc4)ncc3Br)c21 (stereo not drawn) [Example I-53]	50 to 250 nM	6 nM
CNC(=O)C1CCN(c2ccc(Nc3ncc(C(F)(F)F)c(NCc4cccc5c4C(C)(C)C(=O)N5)n3)c(OC)c2)CC1 [Example I-227]	–	5 nM
COc1cc(C(=O)NC2CCN(C)CC2)ccc1Nc1ncc(C(F)(F)F)c(NCc2cccc3c2C(C)(C)C(=O)N3)n1 [Example I-228]	–	8 nM
CCN1CCC(NC(=O)c2ccc(Nc3ncc(C(F)(F)F)c(NCc4cccc5c4CC(=O)N5)n3)c(OC)c2)CC1 [Example I-229]	–	12 nM
COc1cc(N2CCC(C(=O)N(C)C)CC2)ccc1Nc1ncc(C(F)(F)F)c(NCc2cccc3c2C(C)(C)C(=O)N3)n1 [Example I-230]	–	13 nM
COc1cc(C(=O)NC2CCN(C)CC2)ccc1Nc1ncc(C(F)(F)F)c(NCc2cccc3c2C(C)(C)C(=O)N3C)n1 [Example I-231]	–	15 nM
COc1cc(C(=O)NCCN2CCCC2)ccc1Nc1ncc(C(F)(F)F)c(NCc2cccc3c2CC(=O)N3)n1 [Example I-232]	–	47 nM
CCC1(CC)C(=O)Nc2cccc(CNc3nc(Nc4ccc(C(=O)NC5CCN(C)CC5)cc4OC)ncc3C(F)(F)F)c21 [Example I-233]	–	58 nM
COc1cc(C(=O)N2CCOCC2)ccc1Nc1ncc(C(F)(F)F)c(NCc2cccc3c2C(C)(C)C(=O)N3)n1 [Example I-234]	–	8 nM
COc1cc(N2CCC(O)CC2)ccc1Nc1ncc(C(F)(F)F)c(NCc2cccc3c2CC(=O)N3)n1 [Example I-237]	–	21 nM
COc1cc(N2CCNCC2)ccc1Nc1ncc(Cl)c(NCc2cccc3c2C(C)(C)C(=O)N3)n1 [Example I-254]	–	2.2 nM
CC(C)(O)CN1CCC(c2ccc(Nc3ncc(C(F)(F)F)c(NCc4cccc5c4C(C)(C)C(=O)N5)n3)c3c2OCO3)CC1 [Example I-315]	–	1.9 nM
Cc1cc(C2CCN(CC(C)(C)O)CC2)c(C)cc1Nc1ncc(Cl)c(NCc2cccc3c2C(C)(C)C(=O)N3)n1 [Example I-338]	250 to 3000 nM	–
CNC(=O)CN1CCC(c2ccc(Nc3ncc(Cl)c(NCc4cccc5c4C(C)(C)C(=O)N5)n3)c(C)c2)CC1 [Example I-370]	< 50 nM	–
